Data taken from patent publication US12018058B2, “Compositions and methods for diagnosing and/or treating kidney injury” (Boston Medical Center Corporation, priority 2018, dated 2024).
Read-outs that look alike come from different tables or passages of the source. Square brackets hold non-standard residues; d marks the D form. Peptide text beside a SMILES is read from it. βAla = NCCC(=O)O

What was measured:
NPM-Bax complex [1] = experiment: NPM-Bax complex formation, 6A7 Bax immunoprecipitation and NPM immunoblot in ischemic PTEC; type: cell-based; conditions: ischemic primary murine PTEC; compared to size matched random peptide
Excerpt: (§1) NPM is a relevant therapeutic target in human AKI. Primary human proximal tubule epithelial cells (PTEC) derived from cadaveric kidneys were subjected to ischemic stress (transient ATP depletion) in the presence of specific NPM siRNA or non-sense siRNA. […] Thus, manipulating NPM is an effective maneuver. […] Small peptides of 30 amino acids or less are sufficiently specific to minimize off target effects and also reduce the risk of eliciting an antibody response that causes tachyphylaxis. Peptides were commercially synthesized and fused to a nuclear localizing sequence (this NLS has no functional relationship to the “NPM NLS” that regulates NPM translocation). The NLS-CPP markedly increases renal accumulation of small peptides8 as well as in the proximal tubule. […] To determine its effect on NPM-Bax complex formation, active Bax was immunoprecipitated from PTEC rendered ischemic with an antibody directed against the 6A7 epitope. The precipitates were subjected to immunoblot analysis using an anti-NPM antibody. […] NPM and Bax accumulation was measured in mitochondria isolated from human PTEC after ischemic stress. […] This is likely due to the prolonged half-life (about 80 hr) of the peptide in vitro and in vivo due to the presence of an AC modification slows degradation.

NPM-Bax complex [2] = target: T1, NPM-Bax complex (Mus musculus, UniProt Q61937); experiment: NPM-Bax interaction, Bax immunoprecipitates from renal cortical homogenates after ischemia; type: in vivo, murine; conditions: for Bax-NPM interaction in postischemic renal homogenates: peptide injected 3 hours after bilateral renal ischemia, FIG. 9B
T1 construct: from tissue; host or cells: renal cortical homogenate of C57BL/6J mice after bilateral renal pedicle clamping
Method: (§2) Similar amounts of Bax were detected in each lane, and input protein amounts for each sample were identical. IB, immunoblot; IP, immunoprecipitation.
(§3) Cell, tissue, and urinary proteins were harvested using PD buffer containing 40 mM Tris-HCl, pH 8.0, 500 mM NaCl, 0.1% Nonidet P-40, 6 mM EGTA, and a protease inhibitor cocktail (Set I; Calbiochem, San Diego, CA). NPM was immunoprecipitated overnight with NPM antibodies (catalog no. B0556; Sigma-Aldrich) in the presence of protein A/G-agarose beads at 4° C. NPM accumulation was measured in cytosolic samples extracted with low-dose digitonin ([…]).13 Cytosolic proteins were extracted from renal cortical tissue samples using an extraction kit (Biochain Institute, Newark, CA). Briefly, 50-100 mg of kidney cortex tissue was minced on ice and spin washed with 1 ml ice-cold wash buffer before adding […] of buffer C. The mixture was rotated at 4° C. for 20 minutes and then centrifuged at 18,0003 g at 4° C. for 20 minutes before being harvested. Protein levels were measured with the bicinchoninic acid assay (Thermo Scientific, Rockford, IL).
as §1

primary human PTECs = type: cell-based; set-up: Improvement in cell survival: dose or concentration left out as unconfirmed; conditions: for Cell survival after ischemic stress: PTECs, ATP depletion, versus control peptide
Method: Exposure to metabolic inhibitors is an established model of ischemic stress that reduces ATP content to, 10% of baseline values until recovery is initiated.24,26 To achieve ATP depletion, cells were washed three times in glucose-free DMEM (Invitrogen, Carlsbad, CA) followed by incubation in glucose-free DMEM containing sodium cyanide (5 mM) and 2-deoxy-glucose (5 mM) for the indicated times.26
Recovery was initiated by replacing the stress medium described above with complete primary cell culture medium containing glucose and substrates that support the rapid restoration of cell ATP.27
For in vitro testing in primary human PTECs, peptides ([…]) were tested that replicate the Bax domain responsible for binding NPM,34 or two peptides designed to interfere with NPM function were compared with a random nonspecific sequence of the same length (control). Peptides intended to interfere with NPM function overlap key phosphorylation sites located at the NPM amino terminus (peptide 2) or carboxy terminus (peptide 3) detected by mass spectrometry. To improve cell uptake, all peptides contained a cell-penetrating sequence13. For in vivo experiments, a renal-targeting sequence (NLS) was added to enhance renal peptide uptake.35 Peptides were commercially synthesized (Biomatik, Wilmington, DE) J Am Soc Nephrol 30: ccc-ccc, 2018 Nucleophosmin in AKI 3www.jasn.org BASIC RESEARCHas follows: NPM-Bax blocking peptide: Ac-KKKRKV-(bA)-[…]-COOH (SEQ ID NO: 8); peptide 2: AC-PKKKRKV-(bA)-[…]-COOH (SEQ ID NO: 9); and peptide 3: AC-PKKKRKV-(bA)-ESFKK-QEKTPKTPKGPSSVED-IKAK-COOH (SEQ ID NO: 10). A single dose ([…] of the NPM-Bax blocking or control peptide) was administered by tail vein injection immediately after release of the pedicle clamps(0 timepoint) […] in each experimental group. A total of 42 control and 56 experimental animals were studied.
Transient exposure to metabolic inhibitors replicates ischemia in vivo by activating Bax and causing cell death.13,29,36-38 Cell viability was assayed using a modified colorimetric technique (MTTassay).37 The number of surviving cells is expressed as a percentage of viable control cells detected at baseline. Serum BUN and creatinine levels were measured in tail vein blood samples for 7 days after ischemia using QuantiChrom BUN or creatinine assay kits (BioAssay Systems, Hayward, CA) according to the manufacturer's instructions.

[3] = Peptide half-life in vitro and in vivo
NPM-Bax complex [4] = target: T2, NPM-Bax complex (Homo sapiens, UniProt P06748); experiment: NPM-Bax interaction, active Bax immunoprecipitates from PTEC lysates after ATP depletion; type: cell-based; conditions: for Bax-NPM interaction in renal epithelial cells in vitro: PTEC, 60 min ATP depletion plus 30 min recovery, FIG. 9A
T2 construct: endogenous in cells; host or cells: primary human proximal tubule epithelial cells (PTEC), ATP-depleted
Method: as §2, §3

[5] = system: mitochondrial Bax accumulation; experiment: NPM and Bax accumulation in mitochondria isolated from PTEC after ischemic stress; type: cell-based; conditions: mitochondria isolated from human PTEC after ischemic stress
Excerpt: as §1

[6] = listed as NPM-Bax blocking peptide (Peptide #1)

T1 sequence (Q61937 whole entry, one chain of several): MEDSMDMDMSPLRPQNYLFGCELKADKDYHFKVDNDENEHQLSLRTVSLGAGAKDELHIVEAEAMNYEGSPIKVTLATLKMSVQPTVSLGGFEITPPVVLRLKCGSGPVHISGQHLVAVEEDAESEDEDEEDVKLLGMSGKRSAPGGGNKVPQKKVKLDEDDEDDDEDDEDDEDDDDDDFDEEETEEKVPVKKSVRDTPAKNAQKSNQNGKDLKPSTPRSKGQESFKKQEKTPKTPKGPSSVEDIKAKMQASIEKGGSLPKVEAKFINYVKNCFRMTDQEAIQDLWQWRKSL
T2 sequence (P06748 whole entry, one chain of several): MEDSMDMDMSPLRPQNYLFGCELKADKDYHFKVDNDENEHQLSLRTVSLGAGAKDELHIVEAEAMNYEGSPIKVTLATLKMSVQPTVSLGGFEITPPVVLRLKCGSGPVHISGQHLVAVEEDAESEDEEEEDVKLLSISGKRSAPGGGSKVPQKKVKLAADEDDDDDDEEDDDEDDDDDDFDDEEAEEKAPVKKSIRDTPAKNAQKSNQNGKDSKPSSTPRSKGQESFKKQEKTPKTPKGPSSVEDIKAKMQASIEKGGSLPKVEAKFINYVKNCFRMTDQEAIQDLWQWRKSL

## CC[C@H](C)[C@H](NC(=O)[C@@H](NC(=O)[C@H](CC(C)C)NC(=O)[C@H](CO)NC(=O)[C@H](C)NC(=O)[C@@H](NC(=O)[C@H](CC(C)C)NC(=O)[C@@H](NC(=O)CNC(=O)[C@H](C)NC(=O)[C@@H](NC(=O)[C@H](Cc1ccccc1)NC(=O)[C@@H](NC(=O)[C@@H](NC(=O)[C@@H](NC(=O)[C@@H](NC(=O)CCNC(=O)[C@@H](NC(=O)[C@H](CCCCN)NC(=O)[C@H](CCCNC(=N)N)NC(=O)[C@H](CCCCN)NC(=O)[C@H](CCCCN)NC(=O)[C@H](CCCCN)NC(C)=O)C(C)C)[C@@H](C)O)C(C)C)[C@@H](C)O)[C@@H](C)CC)C(C)C)C(C)C)[C@@H](C)O)[C@@H](C)O)C(=O)N[C@@H](Cc1c[nH]c2ccccc12)C(=O)N[C@@H](CCCCN)C(=O)N[C@@H](CCCCN)C(=O)N[C@@H](CCSC)C(=O)NCC(=O)O [Peptide #1] (Ac-KKKRKV[βAla]TVTIFVAGVLTASLTIWKKMG-OH)
NPM-Bax complex [1]
  Decrease of NPM-Bax complex formation: about 50%
NPM-Bax complex [2]; after ischemia by pedicle clamping
  Decrease of NPM-Bax complex formation in vivo (renal cortical homogenates): about 50%
NPM-Bax complex [2]
  Bax-NPM interaction in postischemic renal homogenates: markedly decreases
NPM-Bax complex [2]; listed as Blocking peptide
  Bax-NPM interaction in postischemic renal homogenates: markedly reduced
NPM-Bax complex [2]; [6]
  Bax-NPM interaction in postischemic renal homogenates: decreases
Primary human PTECs
  Improvement in cell survival: 25%
Primary human PTECs; listed as Bax peptide
  Cell survival after ischemic stress: significantly improve cell survival
Primary human PTECs; listed as NPM blocking peptide
  Cell survival after ischemic stress: improves renal cell survival
[3]
  half-life: ~80 h
NPM-Bax complex [4]; FIG. 9
  Decrease of NPM-Bax complex formation in vitro: about 50%
NPM-Bax complex [4]
  Bax-NPM interaction in renal epithelial cells in vitro: markedly decreases
NPM-Bax complex [4]; listed as Blocking peptide
  Bax-NPM interaction in renal epithelial cells in vitro: markedly reduced
NPM-Bax complex [4]; [6]
  Bax-NPM interaction in renal epithelial cells in vitro: decreases
[5]
  Mitochondrial Bax and NPM accumulation: decreased mitochondrial Bax accumulation to a greater extent than it reduced NPM accumulation
